Assay results as given in US8946215B2, “Hydroxy-substituted imidazo[1,2-a]pyridinecarboxamides and their use” (Bayer Pharma Aktiengesellschaft, priority 2012, dated 2015).

Target: T1, recombinant guanylate cyclase reporter cell line (Rattus norvegicus, UniProt P19686+P20595)
T1 construct: expressed in transfected cells
T1 sequence (P20595 1-619): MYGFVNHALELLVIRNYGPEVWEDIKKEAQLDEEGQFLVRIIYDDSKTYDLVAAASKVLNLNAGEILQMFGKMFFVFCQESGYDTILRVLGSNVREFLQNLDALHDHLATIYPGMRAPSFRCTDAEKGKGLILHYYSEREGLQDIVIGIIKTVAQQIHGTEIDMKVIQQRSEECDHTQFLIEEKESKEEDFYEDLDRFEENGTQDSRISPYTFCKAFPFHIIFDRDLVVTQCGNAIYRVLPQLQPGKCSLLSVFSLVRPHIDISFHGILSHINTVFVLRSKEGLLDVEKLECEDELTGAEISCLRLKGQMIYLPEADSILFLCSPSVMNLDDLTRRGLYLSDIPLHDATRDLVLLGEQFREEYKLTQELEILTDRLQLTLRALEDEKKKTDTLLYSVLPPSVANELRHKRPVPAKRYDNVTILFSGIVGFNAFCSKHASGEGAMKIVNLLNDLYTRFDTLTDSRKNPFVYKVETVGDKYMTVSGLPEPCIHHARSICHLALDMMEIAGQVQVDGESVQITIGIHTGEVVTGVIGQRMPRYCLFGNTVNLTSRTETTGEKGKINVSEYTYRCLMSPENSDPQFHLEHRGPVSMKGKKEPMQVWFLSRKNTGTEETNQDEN
T1 sequence (P19686 1-690): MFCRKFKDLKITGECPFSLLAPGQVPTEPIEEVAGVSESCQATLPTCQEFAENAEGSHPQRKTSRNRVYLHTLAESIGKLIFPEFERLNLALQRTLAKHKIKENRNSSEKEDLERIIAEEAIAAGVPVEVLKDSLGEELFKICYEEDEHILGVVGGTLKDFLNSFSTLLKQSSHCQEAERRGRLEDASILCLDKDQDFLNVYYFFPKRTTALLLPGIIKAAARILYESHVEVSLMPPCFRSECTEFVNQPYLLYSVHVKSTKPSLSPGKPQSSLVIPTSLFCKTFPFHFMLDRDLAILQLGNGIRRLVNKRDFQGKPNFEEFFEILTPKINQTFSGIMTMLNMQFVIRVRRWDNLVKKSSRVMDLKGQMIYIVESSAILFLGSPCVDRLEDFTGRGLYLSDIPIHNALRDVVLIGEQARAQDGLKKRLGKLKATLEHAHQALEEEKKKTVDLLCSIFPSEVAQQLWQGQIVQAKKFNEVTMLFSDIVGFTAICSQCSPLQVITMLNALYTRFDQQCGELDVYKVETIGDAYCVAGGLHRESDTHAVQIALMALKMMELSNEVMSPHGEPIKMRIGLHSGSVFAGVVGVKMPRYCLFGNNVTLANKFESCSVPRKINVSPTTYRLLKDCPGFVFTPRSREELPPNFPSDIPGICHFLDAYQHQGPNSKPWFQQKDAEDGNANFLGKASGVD
Assay: Action on recombinant guanylate cyclase reporter cell line
Format: cell-based
Settings: in some cases mean values obtained from individual determinations
Method in brief: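 Cell-based reporter assay with recombinant guanylate cyclase expressed in a reporter cell line, per a published method. Activity reported as minimal effective concentration (MEC), in some cases as the mean of individual determinations.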

Structure (SMILES)	MEC (minimal effective concentration) [µM]
Cc1nc2c(OCC3CCCCC3)cccn2c1C(=O)N[C@@H]1CCC[C@@H]1O (relative stereo) [Example 81, 8-(cyclohexylmethoxy)-N-[cis-2-hydroxycyclopentyl]-2-methylimidazo[1,2-a]-pyridine-3-carboxamide]	0.65
Cc1cc(OCCC(C(F)(F)F)C(F)(F)F)c2nc(C)c(C(=O)NC3CCCC3O)n2c1 (centres unmarked) [Example 173, N-(2-hydroxycyclopentyl)-2,6-dimethyl-8-[4,4,4-trifluoro-3-(trifluoromethyl)butoxy]imidazo[1,2-a]pyridine-3-carboxamide]	3.0
Cc1cc(OCC2CC(F)(F)C2)c2nc(C)c(C(=O)NC(CCCC(F)(F)F)C(C)(C)O)n2c1 (racemic) [Example 176, rac-8-[(3,3-Difluorocyclobutyl)methoxy]-2,6-dimethyl-N-(7,7,7-trifluoro-2-hydroxy-2-methylheptan-3-yl)imidazo[1,2-a]pyridine-3-carboxamide]	3.0
Cc1nc2c(OCc3c(F)cccc3F)cccn2c1C(=O)N[C@@H]1CCC[C@H]1O [Example 36]	0.1
Cc1cc(OCc2ncccc2F)c2nc(C)c(C(=O)NC(CCCC(F)(F)C(F)(F)F)C(C)(C)O)n2c1 (single isomer, unassigned; ent-8) [Example 192, ent-8-[(3-fluoropyridin-2-yl)methoxy]-2,6-dimethyl-N-(7,7,8,8,8-pentafluoro-2-hydroxy-2-methyloctan-3-yl)imidazo[1,2-a]pyridine-3-carboxamide (enantiomer B)]	2
Cc1cc(OCc2ncccc2F)c2nc(C)c(C(=O)NC(CCC(O)C(F)(F)F)C(C)(C)O)n2c1 (single isomer, unassigned; ent-8) [Example 196, ent-8-[(3-fluoropyridin-2-yl)methoxy]-2,6-dimethyl-N-(7,7,7-trifluoro-2,6-dihydroxy-2-methylheptan-3-yl)imidazo[1,2-a]pyridine-3-carboxamide (enantiomer D)]	3
Cc1nc2c(OCc3c(F)cccc3F)cccn2c1C(=O)NC(CO)COCC(C)C (racemic) [Example 163, rac-8-[(2,6-Difluorobenzyl)oxy]-N-(1-hydroxy-3-isobutoxypropan-2-yl)-2-methylimidazo[1,2-a]-pyridine-3-carboxamide]	1.0
Cc1nc2c(OCc3c(F)cccc3F)cccn2c1C(=O)NC(CO)c1ccc(S(C)(=O)=O)cc1 (racemic) [Example 120, rac-8-[(2,6-difluorobenzyl)oxy]-N-{2-hydroxy-1-[4-(methylsulphonyl)phenyl]ethyl}-2-methylimidazo[1,2-a]pyridine-3-carboxamide]	1.0
Cc1nc2c(OCc3c(F)cccc3F)cccn2c1C(=O)NCCC1(O)CCCC1 [Example 117, 8-[(2,6-difluorobenzyl)oxy]-N-[2-(1-hydroxycyclopentyl)ethyl]-2-methylimidazo[1,2-a]pyridine-3-carboxamide]	0.03
Cc1nc2c(OCc3ccccc3)cccn2c1C(=O)NCCC1(O)CCCC1 [Example 48, 8-(benzyloxy)-N-[2-(1-hydroxycyclopentyl)ethyl]-2-methylimidazo[1,2-a]pyridine-3-carboxamide]	1.0
CCCc1nc2c(OCC3CCCCC3)cccn2c1C(=O)N[C@@H](C)CO [Example 57, 8-(cyclohexylmethoxy)-N-[(2S)-1-hydroxypropan-2-yl]-2-propylimidazo[1,2-a]-pyridine-3-carboxamide]	1.0
Cc1nc2c(OCc3c(F)cccc3F)cccn2c1C(=O)NC1CCC(O)CC1 (racemic) [Example 42, (rac)-8-[(2,6-difluorobenzyl)oxy]-N-(trans-4-hydroxycyclohexyl)-2-methylimidazo[1,2-a]-pyridine-3-carboxamide]	1.0
Cc1cc(OCc2c(F)ccc(F)c2F)c2nc(C)c(C(=O)NC(CCC(F)(F)C(F)(F)F)C(C)(C)O)n2c1 (single isomer, unassigned; ent-2) [Example 198, ent-2,6-dimethyl-N-(6,6,7,7,7-pentafluoro-2-hydroxy-2-methylheptan-3-yl)-8-[(2,3,6-trifluorobenzyl)oxy]imidazo[1,2-a]pyridine-3-carboxamide]	0.03
Cc1cc(OCCC(C)C)c2nc(C)c(C(=O)NC(CCCC(F)(F)F)C(C)(C)O)n2c1 (single isomer, unassigned; ent-2) [Example 168, ent-2,6-Dimethyl-8-(3-methylbutoxy)-N-(7,7,7-trifluoro-2-hydroxy-2-methylheptan-3-yl)imidazo-[1,2-a]pyridine-3-carboxamide]	3.0

Next, values leading:

MEC (minimal effective concentration) [µM]	Structure (SMILES)
0.3	Cc1nc2c(OCc3c(F)cccc3F)cccn2c1C(=O)NC(c1ccc(F)cc1)C(C)(C)O (racemic) [Example 152, rac-8-[(2,6-difluorobenzyl)oxy]-N-[1-(4-fluorophenyl)-2-hydroxy-2-methylpropyl]-2-methylimidazo[1,2-a]pyridine-3-carboxamide]
0.65	Cc1nc2c(OCc3c(F)cccc3F)cccn2c1C(=O)NCCC(C)O (centres unmarked) [Example 28]
0.1	Cc1nc2c(OCc3c(F)cccc3F)cccn2c1C(=O)NC(CCC(F)(F)F)C(C)(C)O (single isomer, unassigned; ent-8) [Example 155, ent-8-[(2,6-Difluorobenzyl)oxy]-2-methyl-N-(6,6,6-trifluoro-2-hydroxy-2-methylhexan-3-yl)-imidazo[1,2-a]pyridine-3-carboxamide]
0.03	CCCC[C@H](CO)NC(=O)c1c(C)nc2c(OCc3c(F)cccc3F)cc(F)cn12 [Example 132, 8-[(2,6-difluorobenzyl)oxy]-6-fluoro-N-[(2R)-1-hydroxyhexan-2-yl]-2-methylimidazo[1,2-a]pyridine-3-carboxamide]
0.2	COC(=O)[C@H](CO)NC(=O)c1c(C)nc2c(OCc3c(F)cccc3F)cccn12 [Example 164, Methyl N-({8-[(2,6-difluorobenzyl)oxy]-2-methylimidazo[1,2-a]pyridin-3-yl}carbonyl)-L-serinate]
0.05	CCCC[C@H](CO)NC(=O)c1c(C)nc2c(OCc3c(F)cccc3F)cccn12 [Example 1, 8-[(2,6-Difluorobenzyl)oxy]-N-[(2R)-1-hydroxyhexan-2-yl]-2-methylimidazo[1,2-a]pyridine-3-carboxamide]
0.3	Cc1nc2c(OCc3c(F)cccc3F)cccn2c1C(=O)NC(C)(C)CO [Example 34]
1.0	Cc1nc2c(OCc3c(F)cccc3F)cccn2c1C(=O)NCCOCCO [Example 24]
0.3	CCOCC(CO)NC(=O)c1c(C)nc2c(OCc3c(F)cccc3F)cccn12 (racemic) [Example 160, rac-8-[(2,6-Difluorobenzyl)oxy]-N-(1-ethoxy-3-hydroxypropan-2-yl)-2-methylimidazo[1,2-a]-pyridine-3-carboxamide]
